{"source": "patent US20250213703A1", "about": "“HUMAN INTERLEUKIN 2-POLYETHYLENE GLYCOL CONJUGATE AND USE THEREOF” (Novocodex Biopharmaceuticals Co., Ltd., priority 2021, published 2025)", "key": {"YT cells": {"test_system": "YT cells", "assay": "STAT5 phosphorylation assay (YT cells)", "format": "cell-based, human", "conditions": "[EC50 YT/EC50 CTLL-2 of sample]/[EC50 YT/EC50 CTLL-2 of reference] × 100%", "excerpt": "In this method, two cell lines were adopted, wherein mouse CTLL-2 cells were a cell line containing IL-2Rαβγ, and human YT cells were a cell line containing IL-2Rβγ, and rhIL-2 activated the JAK-STAT signal pathway by binding with IL-2R on the cell surface. […] The lower the percentage change of EC50 ratio of YT cells/CTLL-2 cells was, the better the effect of promoting the immune function of the samples was, and on the contrary, the better the effect of inhibiting the immune function was.\nThe specific process was as follows: the mouse CTLL-2 cells (purchased from American Type Culture Collection) and the human YT cells were cultured in their own media (CTLL-2 cell medium: RPMI 1640+10% FBS+400 IU/mL rhIL-2, 2 mM L-glutamine and 1 mM sodium pyruvate; and YT cell medium: RPMI 1640+10% FBS+1 mm Non-Essential Amino Acids Solution (purchased from Gibco, product catalog number 11140050)) to a sufficient amount at condition of 37° C. and 5% carbon dioxide, and starved for 4 hours before detection, and then the cell density was adjusted to be 1×10^6 cells/mL for later use."}, "mouse liver cancer H22": {"test_system": "mouse liver cancer H22", "assay": "Anti-tumor activity, H22 homograft tumor model", "format": "in vivo", "conditions": "Balb/c mice", "method": "(§1) A cell suspension of 2×10^5/0.1 mL/mouse CT26.WT (purchased from […], product catalog number CRL-2638) and a cell suspension of 4×10^5/0.1 mL/mouse H22 (purchased from CCTCC, product catalog number GD00091) were subcutaneously inoculated into right backs of the mice. […] During the experiment, weights and tumor volumes of the animals were measured 3 times every week, and administration modes and experimental results were shown in Table 4."}, "[1]": {"conditions": "mouse, in vivo, iv, 1 mg/kg", "quoted_text": "The blood sample was placed at room temperature for 15 minutes and centrifuged at 6,800 g/min for 6 minutes to obtain serum. The plasma concentration in the serum was analyzed by the following method:\n(1) Coating: 50 μL of 1 μg/mL working solution of Anti-IL-2 antibody (purchased from abcam, product catalog number: ab9618) was added into each well in a high-adsorption 96-well plate, and incubated at 2° C. to 8° C. overnight. (2) Washing: the liquid in the well was discarded, and the well was washed with 1 xPBST (0.05% Tween-20) for 3 times, according to 300 μL/well. (3) Sealing: a casein sealing solution (purchased from Thermo, product catalog number 37528) was added according to 200 μL/well, and allowed to stand at room temperature for 90 minutes. (4) Washing: the liquid in the well was discarded, and the well was washed with 1 xPBST for 3 times, according to 300 μL/well. […] (6) Washing: the liquid in the well was discarded, and the well was washed with 1×PBST for 3 times, according to 300 μL/well. (7) Primary antibody: 50 μL of 0.25 μg/mL working solution of IL-2 Monoclonal Antibody (BG5) and Biotin (purchased from Invitrogen, product catalog number M600B) was added into each well, and allowed to stand at room temperature for 60 minutes. (8) Washing: the liquid in the well was discarded, and the well was washed with 1×PBST for 3 times, according to 300 μL/well. (9) Secondary antibody: Pierce™ High Sensitivity Streptavidin-HRP (purchased from Thermo, product catalog number 21130) was diluted for 4,000 times with a casein sealing solution, and 50 μL was added into each well, and allowed to stand at room temperature for 60 minutes. (10) Washing: the liquid in the well was discarded, and the well was washed with 1×PBST for 4 times, according to 300 μL/well. […] (12) Stopping and reading: 2 M sulfuric acid stop solution was added 25 minutes later, and light absorption values at 450 nm and 650 nm were read on a microplate reader (purchased from Perkin Elmer, model EnSight)."}, "[2]": {"test_system": "mouse colon cancer CT26.WT", "assay": "Anti-tumor activity, CT26.WT homograft tumor model", "format": "in vivo", "conditions": "Balb/c mice", "method": "as §1"}, "[3]": {"test_system": "CD8^+ T cells and CD4^+ Treg cells", "assay": "Immune cell population in CT26.WT tumor tissue (flow cytometry)", "format": "in vivo, mouse", "conditions": "for CD8^+ T cells/CD4^+ Treg / Percentage of CD4^+ Treg in leucocytes / Percentage of CD8^+ T cells in leucocytes: 5th day, 2.0 mg/kg IV single dosage; for proportions of CD4^+ Treg cells compared with Quanqi rhIL2 / proportions of CD8^+ T cells compared with Quanqi rhIL2 / proportions of CD8^+ T/CD4^+ Treg compared with Quanqi rhIL2: in words", "method": "A cell suspension of 2×10^5/0.1 mL/mouse CT26.WT was subcutaneously inoculated into right backs of the mice. […] On the 5th day, tumor tissue samples of various groups were collected for flow cytometry detection of changes in cell populations of CD8^+ T cells and CD4^+ Treg cells."}, "IL-2Rβγ": {"molecular_target": "T1, IL-2Rβγ (Homo sapiens, UniProt P14784+P31785)", "T1 sequence (P14784 27-551)": "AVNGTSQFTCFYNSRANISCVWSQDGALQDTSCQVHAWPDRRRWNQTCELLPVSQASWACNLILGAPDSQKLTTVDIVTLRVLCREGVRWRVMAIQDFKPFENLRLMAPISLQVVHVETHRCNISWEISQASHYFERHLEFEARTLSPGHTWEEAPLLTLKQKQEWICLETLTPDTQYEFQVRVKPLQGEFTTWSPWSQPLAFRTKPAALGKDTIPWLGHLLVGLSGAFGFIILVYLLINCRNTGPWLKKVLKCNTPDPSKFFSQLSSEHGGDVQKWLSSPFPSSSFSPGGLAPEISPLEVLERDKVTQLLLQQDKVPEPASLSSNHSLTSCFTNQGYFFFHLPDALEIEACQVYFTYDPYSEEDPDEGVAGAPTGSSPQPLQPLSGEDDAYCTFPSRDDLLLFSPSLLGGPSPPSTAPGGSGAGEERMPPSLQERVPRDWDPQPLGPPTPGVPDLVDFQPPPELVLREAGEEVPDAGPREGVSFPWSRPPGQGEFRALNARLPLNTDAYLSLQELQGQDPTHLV", "T1 sequence (P31785 23-369)": "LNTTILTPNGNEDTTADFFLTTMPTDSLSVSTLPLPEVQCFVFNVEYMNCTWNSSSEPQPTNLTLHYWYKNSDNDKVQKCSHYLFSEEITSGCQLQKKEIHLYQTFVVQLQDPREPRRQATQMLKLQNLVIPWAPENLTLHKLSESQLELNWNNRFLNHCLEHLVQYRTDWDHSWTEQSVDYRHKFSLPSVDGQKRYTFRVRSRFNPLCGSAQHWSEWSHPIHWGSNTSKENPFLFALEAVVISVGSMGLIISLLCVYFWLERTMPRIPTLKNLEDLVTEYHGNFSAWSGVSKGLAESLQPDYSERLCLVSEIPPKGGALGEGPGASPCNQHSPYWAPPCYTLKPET", "conditions": "moderate-affinity complex IL-2Rβγ; cited from earlier work"}, "IL-2Rαβγ": {"molecular_target": "T2, IL-2Rαβγ (Homo sapiens, UniProt P01589+P14784+P31785)", "T2 sequence (P01589 22-272)": "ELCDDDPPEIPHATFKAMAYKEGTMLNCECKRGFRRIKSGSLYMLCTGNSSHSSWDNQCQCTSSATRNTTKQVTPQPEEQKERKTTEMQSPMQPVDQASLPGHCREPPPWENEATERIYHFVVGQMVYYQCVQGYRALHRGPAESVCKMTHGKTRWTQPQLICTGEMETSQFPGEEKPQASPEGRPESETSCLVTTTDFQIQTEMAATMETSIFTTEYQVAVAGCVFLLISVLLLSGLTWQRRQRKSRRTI", "T2 sequence (P14784 27-551)": "T1 sequence (P14784 27-551)", "T2 sequence (P31785 23-369)": "T1 sequence (P31785 23-369)", "conditions": "high-affinity complex IL-2Rαβγ; cited from earlier work"}, "IL-2Rα": {"molecular_target": "T3, IL-2Rα (Homo sapiens, UniProt P01589)", "T3 sequence (P01589 22-272)": "T2 sequence (P01589 22-272)", "conditions": "low-affinity receptor IL-2Rα subunit; cited from earlier work"}, "[4]": {"molecular_target": "IL-2Rαβγ on mouse CTLL-2 cells (mouse (CTLL-2 cells)) (UniProt P01590)", "sequence (P01590 22-268, chain 1 of 3)": "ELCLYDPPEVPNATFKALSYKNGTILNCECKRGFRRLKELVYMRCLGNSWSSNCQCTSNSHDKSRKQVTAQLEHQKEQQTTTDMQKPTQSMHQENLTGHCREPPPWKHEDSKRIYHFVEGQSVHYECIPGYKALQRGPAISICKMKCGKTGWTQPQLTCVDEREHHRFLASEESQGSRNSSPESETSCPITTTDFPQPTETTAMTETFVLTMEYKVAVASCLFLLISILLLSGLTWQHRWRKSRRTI", "sequence (P16297 27-539, chain 2 of 3, further chain)": "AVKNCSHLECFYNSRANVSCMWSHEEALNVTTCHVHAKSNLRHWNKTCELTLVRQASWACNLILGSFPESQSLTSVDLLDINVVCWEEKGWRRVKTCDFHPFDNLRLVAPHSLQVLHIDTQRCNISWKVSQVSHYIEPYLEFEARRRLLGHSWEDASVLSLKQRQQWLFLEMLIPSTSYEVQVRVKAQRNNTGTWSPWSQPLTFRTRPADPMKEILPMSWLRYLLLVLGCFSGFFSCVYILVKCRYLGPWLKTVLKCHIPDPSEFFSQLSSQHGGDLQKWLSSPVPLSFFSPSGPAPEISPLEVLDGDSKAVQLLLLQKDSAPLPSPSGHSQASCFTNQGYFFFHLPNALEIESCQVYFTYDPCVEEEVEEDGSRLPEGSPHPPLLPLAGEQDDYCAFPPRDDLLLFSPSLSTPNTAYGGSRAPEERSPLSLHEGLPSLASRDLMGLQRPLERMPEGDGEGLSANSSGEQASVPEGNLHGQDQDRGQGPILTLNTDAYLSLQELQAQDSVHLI", "sequence (P34902 23-369, chain 3 of 3, further chain)": "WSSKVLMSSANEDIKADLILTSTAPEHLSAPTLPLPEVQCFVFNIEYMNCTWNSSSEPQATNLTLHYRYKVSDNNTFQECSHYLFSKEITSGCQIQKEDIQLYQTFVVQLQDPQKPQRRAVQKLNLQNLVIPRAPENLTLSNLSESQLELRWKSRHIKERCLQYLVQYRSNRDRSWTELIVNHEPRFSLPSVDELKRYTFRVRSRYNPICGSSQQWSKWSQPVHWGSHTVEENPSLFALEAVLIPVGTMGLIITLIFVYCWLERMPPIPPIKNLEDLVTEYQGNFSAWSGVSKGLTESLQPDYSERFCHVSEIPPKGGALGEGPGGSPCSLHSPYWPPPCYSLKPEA", "assay": "cell-based or functional assay"}, "[5]": {"conditions": "high dosage 5.0 mg/kg IV Q5D × 3"}, "[6]": {"conditions": "low dosage 0.7 mg/kg IV Q5D × 3"}}}
{"substance": "30 KD PEG-rhIL2-K35: rhIL-2 with unnatural amino acid NOPK at K35 site, coupled via oxime bond with 30 KD aminoxy PEG", "values": [{"measurement": "Percentage change of EC50 ratio of YT/CTLL-2 cells of 30 KD PEG-rhIL2 sample", "setting": "YT cells", "value": 53, "unit": "%"}]}
{"substance": "30 KD PEG-rhIL2-P65: rhIL-2 with unnatural amino acid NOPK at P65 site, coupled via oxime bond with 30 KD aminoxy PEG", "values": [{"measurement": "Percentage change of EC50 ratio of YT/CTLL-2 cells of 30 KD PEG-rhIL2 sample", "setting": "YT cells", "value": 91, "unit": "%"}]}
{"substance": "30 KD PEG-rhIL2-Y45: rhIL-2 with unnatural amino acid NOPK at Y45 site, coupled via oxime bond with 30 KD aminoxy PEG", "values": [{"measurement": "Average value ± standard error of tumor weight", "setting": "mouse liver cancer H22; [5]", "value": 0.4, "unit": "g"}, {"measurement": "TGITW", "setting": "mouse liver cancer H22; [5]", "value": 79, "unit": "%"}, {"measurement": "Average value ± standard error of tumor weight", "setting": "mouse liver cancer H22; [6]", "value": 0.82, "unit": "g"}, {"measurement": "TGITW", "setting": "mouse liver cancer H22; [6]", "value": 57, "unit": "%"}, {"measurement": "Percentage change of EC50 ratio of YT/CTLL-2 cells of 30 KD PEG-rhIL2 sample", "setting": "YT cells", "value": 6, "unit": "%"}, {"measurement": "AUC0-t", "setting": "[1]", "value": 168.141, "unit": "µg·h/mL"}, {"measurement": "MRT0-t", "setting": "[1]", "value": 9.42, "unit": "h"}, {"measurement": "Vz", "setting": "[1]", "value": 0.126, "unit": "L/kg"}, {"measurement": "Average value ± standard error of tumor weight", "setting": "[2]; [5]", "value": 0.22, "unit": "g"}, {"measurement": "TGITW", "setting": "[2]; [5]", "value": 92, "unit": "%"}, {"measurement": "Average value ± standard error of tumor weight", "setting": "[2]; [6]", "value": 0.93, "unit": "g"}, {"measurement": "TGITW", "setting": "[2]; [6]", "value": 66, "unit": "%"}, {"measurement": "CD8^+ T cells/CD4^+ Treg", "setting": "[3]", "value": 23.2}, {"measurement": "Percentage of CD4^+ Treg in leucocytes", "setting": "[3]", "value": 1.3, "unit": "%"}, {"measurement": "Percentage of CD8^+ T cells in leucocytes", "setting": "[3]", "value": 30.1, "unit": "%"}, {"measurement": "proportions of CD4^+ Treg cells compared with Quanqi rhIL2", "setting": "[3]", "value": "significantly decreased"}, {"measurement": "proportions of CD8^+ T cells compared with Quanqi rhIL2", "setting": "[3]", "value": "significantly increased"}, {"measurement": "proportions of CD8^+ T/CD4^+ Treg compared with Quanqi rhIL2", "setting": "[3]", "value": "significantly increased"}]}
{"substance": "30 KD PEG-rhIL2-E61: rhIL-2 with unnatural amino acid NOPK at E61 site, coupled via oxime bond with 30 KD aminoxy PEG", "values": [{"measurement": "Percentage change of EC50 ratio of YT/CTLL-2 cells of 30 KD PEG-rhIL2 sample", "setting": "YT cells", "value": 89, "unit": "%"}]}
{"substance": "30 KD PEG-rhIL2-T41: rhIL-2 with unnatural amino acid NOPK at T41 site, coupled via oxime bond with 30 KD aminoxy PEG", "values": [{"measurement": "Average value ± standard error of tumor weight", "setting": "mouse liver cancer H22; [5]", "value": 0.38, "unit": "g"}, {"measurement": "TGITW", "setting": "mouse liver cancer H22; [5]", "value": 80, "unit": "%"}, {"measurement": "Average value ± standard error of tumor weight", "setting": "mouse liver cancer H22; [6]", "value": 0.69, "unit": "g"}, {"measurement": "TGITW", "setting": "mouse liver cancer H22; [6]", "value": 63, "unit": "%"}, {"measurement": "Percentage change of EC50 ratio of YT/CTLL-2 cells of 30 KD PEG-rhIL2 sample", "setting": "YT cells", "value": 43, "unit": "%"}, {"measurement": "Average value ± standard error of tumor weight", "setting": "[2]; [5]", "value": 0.32, "unit": "g"}, {"measurement": "TGITW", "setting": "[2]; [5]", "value": 88, "unit": "%"}, {"measurement": "Average value ± standard error of tumor weight", "setting": "[2]; [6]", "value": 0.64, "unit": "g"}, {"measurement": "TGITW", "setting": "[2]; [6]", "value": 77, "unit": "%"}, {"measurement": "CD8^+ T cells/CD4^+ Treg", "setting": "[3]", "value": 27.7}, {"measurement": "Percentage of CD4^+ Treg in leucocytes", "setting": "[3]", "value": 1.3, "unit": "%"}, {"measurement": "Percentage of CD8^+ T cells in leucocytes", "setting": "[3]", "value": 36.0, "unit": "%"}, {"measurement": "proportions of CD4^+ Treg cells compared with Quanqi rhIL2", "setting": "[3]", "value": "significantly decreased"}, {"measurement": "proportions of CD8^+ T cells compared with Quanqi rhIL2", "setting": "[3]", "value": "significantly increased"}, {"measurement": "proportions of CD8^+ T/CD4^+ Treg compared with Quanqi rhIL2", "setting": "[3]", "value": "significantly increased"}]}
{"substance": "IL-2: mature human IL-2 with 133 amino acids, background description", "values": [{"measurement": "Kd", "setting": "IL-2Rβγ", "value": 1, "unit": "nM"}, {"measurement": "Kd", "setting": "IL-2Rαβγ", "value": 0.01, "unit": "nM"}, {"measurement": "Kd", "setting": "IL-2Rα", "value": 10, "unit": "nM"}]}
{"substance": "reference rhIL-2 (purchased from Beijing Solarbio Science & Technology Co., Ltd., catalog number: P00020) (from UniProt P60568 21-153) (ligand)", "values": [{"measurement": "STAT5 phosphorylation assay (CTLL-2 cells) EC50", "setting": "[4]", "value": 0.12, "unit": "ng/mL"}]}
